Measurements reported in PubChem BioAssay (NCI).
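Protocol summary: plate cells (96-well), add compound at 5 concentrations, incubate 48 h, interpolate endpoints linearly. TGI denotes the concentration required for complete inhibition of growth.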

How the values were obtained:
Experiment in all cases: growth of human tumour cells (NCI), 48 h
TK-10 renal = tested on: TK-10 renal
UO-31 renal = tested on: UO-31 renal
DU-145 prostate = tested on: DU-145 prostate
HCT-116 colon = tested on: HCT-116 colon
HOP-92 NSCLC = tested on: HOP-92 NSCLC
UACC-62 melanoma = tested on: UACC-62 melanoma
SF-539 CNS = tested on: SF-539 CNS
HOP-62 NSCLC = tested on: HOP-62 NSCLC
HT29 colon = tested on: HT29 colon
SW-620 colon = tested on: SW-620 colon
MDA-MB-231 breast = tested on: MDA-MB-231 breast
HS 578T breast = tested on: HS 578T breast
MALME-3M melanoma = tested on: MALME-3M melanoma
LOX IMVI melanoma = tested on: LOX IMVI melanoma
IGROV1 ovarian = tested on: IGROV1 ovarian
CCRF-CEM leukemia = tested on: CCRF-CEM leukemia
SNB-75 CNS = tested on: SNB-75 CNS
OVCAR-8 ovarian = tested on: OVCAR-8 ovarian
K-562 leukemia = tested on: K-562 leukemia
OVCAR-5 ovarian = tested on: OVCAR-5 ovarian
HCC-2998 colon = tested on: HCC-2998 colon
OVCAR-4 ovarian = tested on: OVCAR-4 ovarian
EKVX NSCLC = tested on: EKVX NSCLC
NCI-H226 lung = tested on: NCI-H226 lung
BT-549 breast = tested on: BT-549 breast
NCI-H23 lung = tested on: NCI-H23 lung
A549 NSCLC = tested on: A549 NSCLC
M14 melanoma = tested on: M14 melanoma
MDA-N = tested on: MDA-N
UACC-257 melanoma = tested on: UACC-257 melanoma
MDA-MB-435 = tested on: MDA-MB-435
SN12C renal = tested on: SN12C renal
MOLT-4 leukemia = tested on: MOLT-4 leukemia
KM12 colon = tested on: KM12 colon
NCI-H460 lung = tested on: NCI-H460 lung
MCF7 breast = tested on: MCF7 breast
PC-3 prostate = tested on: PC-3 prostate
HL-60(TB) leukemia = tested on: HL-60(TB) leukemia
HCT-15 colon = tested on: HCT-15 colon
SNB-19 CNS = tested on: SNB-19 CNS
OVCAR-3 ovarian = tested on: OVCAR-3 ovarian
SK-MEL-28 melanoma = tested on: SK-MEL-28 melanoma
786-0 renal = tested on: 786-0 renal
COLO 205 colon = tested on: COLO 205 colon
SK-MEL-2 melanoma = tested on: SK-MEL-2 melanoma
U251 CNS = tested on: U251 CNS
T-47D breast = tested on: T-47D breast
SF-295 CNS = tested on: SF-295 CNS
ACHN renal = tested on: ACHN renal
SF-268 CNS = tested on: SF-268 CNS
SR leukemia = tested on: SR leukemia
NCI/ADR-RES ovarian = tested on: NCI/ADR-RES ovarian
SK-OV-3 ovarian = tested on: SK-OV-3 ovarian
RXF 393 renal = tested on: RXF 393 renal
RPMI-8226 leukemia = tested on: RPMI-8226 leukemia
SK-MEL-5 melanoma = tested on: SK-MEL-5 melanoma
CAKI-1 renal = tested on: CAKI-1 renal
A498 renal = tested on: A498 renal
NCI-H522 lung = tested on: NCI-H522 lung

Measured: TGI

CCCCC(=O)NS(=NC(=O)c1ccccc1)C(Cl)(Cl)Cl (configuration not stated)
not listed: CAKI-1 renal | A498 renal | NCI-H522 lung
> 100 µM: all other assays above

CCN(CC)CC1CCCCN1CC(=O)N1c2ccccc2NC(=O)CC1C (configuration not stated)
not listed: UACC-62 melanoma | SNB-75 CNS | SR leukemia
> 100 µM: all other assays above
